Source: US10183938B2, “Geminal substituted quinuclidine amide compounds as agonists of α-7 nicotonic acetylcholine receptors” (AXOVANT SCIENCES GMBH, priority 2014, dated 2019)
Structures can show the parent of a compound that is named as a salt.

Target: human α7 nAChRs transiently expressed in Xenopus laevis oocytes (Homo sapiens (Human), UniProt P36544)
Assay: Oocyte electrophysiology screen (TEVC)
Format: cell-based
Settings: 0.01 mM test compound, peak current relative to 0.2 mM ACh
Description: Oocyte Electrophysiology Screen (% ACh @ 10 μM Oocyte)
The Oocyte Electrophysiology Screen studies were performed under contract by HiQScreen Geneva, Switzerland. All experiments were carried out at human α7 nAChRs transiently expressed in Xenopus laevis oocytes using the method of cDNA expression. Currents evoked by acetylcholine or other agonist ligands were recorded using the standard two-electrode voltage-clamp configuration (TEVC). X. laevis oocytes were prepared and injected using standard procedures. Briefly, ovaries were harvested from X. laevis females that were deeply anesthetized and pithed following the animal rights rule from the Geneva canton. A small piece of ovary was isolated for immediate preparation while the remaining part was placed at 4° C. in a sterile Barth solution containing in mM: NaCl 88, KCl 1, NaHCO3 2.4, HEPES 10, MgSO4.7H2O 0.82, Ca(NO3)2.4H2O 0.33, CaCl2.6H2O 0.41, at pH 7.4, and supplemented with 20 μg/mL of kanamycin, 100 unit/mL penicillin and 100 μg/mL streptomycin. […] Cells were held at −80 mV. Data were filtered at 10 Hz, captured at 100 Hz and analyzed using proprietary data acquisition and analysis software running under Matlab (Mathworks Inc.).
Experimental Protocol and Analysis
After establishing a baseline transmembrane current, acetylcholine (ACh) was applied for 5 seconds at a concentration of 0.2 mM to establish a control ACh-evoked current response. Following a wash period of 90 s in OR2 medium (free of ACh), cells were then exposed for 30 s to the test compound applied at 0.01 mM. The same reference ACh test pulse was immediately given at the end of the compound exposure and again after 90 s of recovery in OR2 Medium (free of ACh or test compound). All data were determined in triplicate. The response evoked by the test compound was expressed as a percentage of that evoked by ACh: Response (% ACh)=100×(Itest/IACh) where Itest is the peak inward current measured during exposure to 0.01 mM of test compound and IACh is the peak inward current measured in the presence of ACh.

human α7 nAChRs transiently expressed in Xenopus laevis oocytes, sequence (P36544 23-502 limits assumed): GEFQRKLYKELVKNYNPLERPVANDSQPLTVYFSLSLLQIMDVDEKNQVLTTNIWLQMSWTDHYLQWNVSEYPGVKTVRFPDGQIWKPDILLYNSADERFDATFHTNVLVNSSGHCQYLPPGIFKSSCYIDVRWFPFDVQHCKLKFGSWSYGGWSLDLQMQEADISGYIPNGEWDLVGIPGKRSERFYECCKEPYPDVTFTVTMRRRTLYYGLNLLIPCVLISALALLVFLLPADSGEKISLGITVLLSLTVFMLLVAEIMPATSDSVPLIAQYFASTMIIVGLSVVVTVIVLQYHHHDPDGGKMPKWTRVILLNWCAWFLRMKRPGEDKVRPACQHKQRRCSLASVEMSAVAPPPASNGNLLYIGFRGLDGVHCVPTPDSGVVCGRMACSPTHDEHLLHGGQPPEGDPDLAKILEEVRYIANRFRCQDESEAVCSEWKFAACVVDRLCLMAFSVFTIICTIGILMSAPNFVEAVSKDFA

SMILES | % ACh @ 10 μM Oocyte [% ACh]
O=C(NC1C2CCN(CC2)C12CC2)c1cc2cc(Cl)c(Cl)cc2s1 (single isomer, unassigned; enantiomer2) [67b, 5,6-dichloro-N-(1′-azaspiro[cyclopropane-1,2′-bicyclo[2.2.2]octan]-3′-yl)benzo[b]thiophene-2-carboxamide-enantiomer2 hydrochloride] | 1
CC1(C)[C@H](NC(=O)c2cnn3ncccc23)C2CCN1CC2 [(R)-27, (R)—N-(2,2-dimethylquinuclidin-3-yl)pyrazolo[1,5-b]pyridazine-3-carboxamide hydrochloride] | 0
CC1(C)[C@@H](NC(=O)c2ccc3occc3c2)C2CCN1CC2 [(S)-6, (S)—N-(2,2-dimethylquinuclidin-3-yl)benzofuran-5-carboxamide hydrochloride] | 2
CC1(C)[C@H](NC(=O)c2ccc3oc(Cl)cc3c2)C2CCN1CC2 [(R)-39, (R)-2-chloro-N-(2,2-dimethylquinuclidin-3-yl)benzofuran-5-carboxamide hydrochloride] | 697
O=C(N[C@H]1C2CCN(CC2)C12CC2)c1cc2ccoc2cn1 [(S)-75, (S)—N-(1′-azaspiro[cyclopropane-1,2′-bicyclo[2.2.2]octan]-3′-yl)furo[2,3-c]pyridine-5-carboxamide hydrochloride] | 14
CC1(C)[C@@H](NC(=O)c2nc3ccccc3s2)C2CCN1CC2 [(S)-29, (S)—N-(2,2-dimethylquinuclidin-3-yl)benzo[d]thiazole-2-carboxamide hydrochloride] | 2
Cc1nc2cc(C(=O)N[C@@H]3C4CCN(CC4)C3(C)C)ccc2o1 [(R)-32, (R)—N-(2,2-dimethylquinuclidin-3-yl)-2-methylbenzo[d]oxazole-5-carboxamide] | 61
CC1(C)[C@H](NC(=O)c2cc3ccccc3s2)C2CCN1CC2 [(R)-1, (R)—N-(2,2-dimethylquinuclidin-3-yl)benzo[b]thiophene-2-carboxamide hydrochloride] | 401
CC1(C)[C@@H](NC(=O)c2cc3ccc(C(F)(F)F)cc3s2)C2CCN1CC2 [(S)-10, (S)—N-(2,2-dimethylquinuclidin-3-yl)-6-(trifluoromethyl)benzo[b]thiophene-2-carboxamide hydrochloride] | 1
Cc1ccc2cc(C(=O)N[C@H]3C4CCN(CC4)C3(C)C)sc2c1 [(S)-15, (S)—N-(2,2-dimethylquinuclidin-3-yl)-6-methylbenzo[b]thiophene-2-carboxamide hydrochloride] | 3
Cn1cnc2cc(C(=O)N[C@@H]3C4CCN(CC4)C3(C)C)ccc21 [(R)-42, (R)—N-(2,2-dimethylquinuclidin-3-yl)-1-methyl-1H-benzo[d]imidazole-5-carboxamide hydrochloride] | 0
Cl.O=C(N[C@@H]1C2CCN(CC2)C12CC2)c1cc2c(cn1)OCCO2 [(R)-76, (R)—N-(1′-azaspiro[cyclopropane-1,2′-bicyclo[2.2.2]octan]-3′-yl)-2,3-dihydro-[1,4]dioxino[2,3-c]pyridine-7-carboxamide hydrochloride] | 129
Cn1cnc2ccc(C(=O)N[C@@H]3C4CCN(CC4)C34CC4)cc21 [(R)-96, (R)-1-methyl-N-(1′-azaspiro[cyclopropane-1,2′-bicyclo[2.2.2]octan]-3′-yl)-1H-benzo[d]imidazole-6-carboxamide hydrochloride] | 0
CC1(C)[C@@H](NC(=O)c2cc3ccc(Cl)cc3s2)C2CCN1CC2 [(S)-12, (S)-6-chloro-N-(2,2-dimethylquinuclidin-3-yl)benzo[b]thiophene-2-carboxamide hydrochloride] | 3
O=C(N[C@@H]1C2CCN(CC2)C12CC2)c1nc2ccccc2s1 [(R)-82, (R)—N-(1′-azaspiro[cyclopropane-1,2′-bicyclo[2.2.2]octan]-3′-yl)benzo[d]thiazole-2-carboxamide hydrochloride] | 239
CC1(C)[C@H](NC(=O)c2ccc3c(c2)OCCO3)C2CCN1CC2.Cl [(R)-215, (R)-N-(2,2-dimethylquinuclidin-3-yl)-2,3-dihydrobenzo[b][1,4]dioxine-6-carboxamide hydrochloride] | 86
CC1(C)[C@H](NC(=O)c2cc3ccc(N4CCC(F)(F)CC4)cc3s2)C2CCN1CC2 [(R)-45, (R)-6-(4,4-difluoropiperidin-1-yl)-N-(2,2-dimethylquinuclidin-3-yl)benzo[b]thiophene-2-carboxamide hydrochloride] | 1
CC1(C)[C@@H](NC(=O)c2cc3cc(C4CC4)ccc3s2)C2CCN1CC2 [(S)-19, (S)-5-cyclopropyl-N-(2,2-dimethylquinuclidin-3-yl)benzo[b]thiophene-2-carboxamide hydrochloride] | 3
CS(=O)(=O)c1ccc2cc(C(=O)N[C@@H]3C4CCN(CC4)C34CC4)sc2c1 [(R)-103, (R)-6-(methylsulfonyl)-N-(1′-azaspiro[cyclopropane-1,2′-bicyclo[2.2.2]octan]-3′-yl)benzo[b]thiophene-2-carboxamide hydrochloride] | 2
CC1(C)[C@@H](NC(=O)c2cc3cc(C(F)(F)F)ccc3s2)C2CCN1CC2 [(S)-17, (S)—N-(2,2-dimethylquinuclidin-3-yl)-5-(trifluoromethyl)benzo[b]thiophene-2-carboxamide hydrochloride] | 1
O=C(NC1C2CCN(CC2)C12CC2)c1cc2cc(Cl)c(Cl)cc2s1 (single isomer, unassigned; enantiomer1) [67a, 5,6-dichloro-N-(1′-azaspiro[cyclopropane-1,2′-bicyclo[2.2.2]octan]-3′-yl)benzo[b]thiophene-2-carboxamide-enantiomer1 hydrochloride] | 1
CC1(C)[C@H](NC(=O)c2cc3ccc(F)c(C(F)(F)F)c3s2)C2CCN1CC2.Cl [(R)-211, (R)-N-(2,2-dimethylquinuclidin-3-yl)-6-fluoro-7-(trifluoromethyl)benzo[b]thiophene-2-carboxamide hydrochloride] | 100
Cl.O=C(N[C@@H]1C2CCN(CC2)C12CC2)c1cc2ccc(OC(F)(F)F)cc2s1 [(R)-248, (R)-N-(1′-azaspiro[cyclopropane-1,2′-bicyclo[2.2.2]octan]-3′-yl)-6-(trifluoromethoxy)benzo[b]thiophene-2-carboxamide hydrochloride] | 1

Same assay, conditions: 0.01 mM test compound, peak current relative to 0.2 mM ACh; hydrochloride

SMILES | % ACh @ 10 μM Oocyte [% ACh]
Cc1ccc2cc(C(=O)NC3C4CCN(CC4)C34CC4)sc2c1 (single isomer, unassigned; enantiomer2) [68b, 6-methyl-N-(1′-azaspiro[cyclopropane-1,2′-bicyclo[2.2.2]octan]-3′-yl)benzo[b]thiophene-2-carboxamide-enantiomer2 hydrochloride] | 5
Cc1ccc2sc(C(=O)NC3C4CCN(CC4)C34CC4)cc2c1 (single isomer, unassigned; enantiomer2) [69b, 5-methyl-N-(1′-azaspiro[cyclopropane-1,2′-bicyclo[2.2.2]octan]-3′-yl)benzo[b]thiophene-2-carboxamide-enantiomer2 hydrochloride] | 1
O=C(NC1C2CCN(CC2)C12CC2)c1cc2ccc(Cl)cc2s1 (single isomer, unassigned; enantiomer2) [65b, 6-chloro-N-(1′-azaspiro[cyclopropane-1,2′-bicyclo[2.2.2]octan]-3′-yl)benzo[b]thiophene-2-carboxamide-enantiomer2 hydrochloride] | 1
O=C(NC1C2CCN(CC2)C12CC2)c1cc2cc(C3CC3)ccc2s1 (single isomer, unassigned; enantiomer1) [72a, 5-cyclopropyl-N-(1′-azaspiro[cyclopropane-1,2′-bicyclo[2.2.2]octan]-3′-yl)benzo[b]thiophene-2-carboxamide-enantiomer1 hydrochloride] | 188
O=C(NC1C2CCN(CC2)C12CC2)c1cc2cc(C(F)(F)F)ccc2s1 (single isomer, unassigned; enantiomer2) [70b, N-(1′-azaspiro[cyclopropane-1,2′-bicyclo[2.2.2]octan]-3′-yl)-5-(trifluoromethyl)benzo[b]thiophene-2-carboxamide-enantiomer2 hydrochloride] | 1
CC1(C)C(NC(=O)c2cc3ccccc3s2)C2CCN1CC2 (single isomer, unassigned; enantiomer2) [1b, N-(2,2-dimethylquinuclidin-3-yl)benzo[b]thiophene-2-carboxamide-enantiomer2 hydrochloride] | 2
